Measurements as given in patent US20240166602A1, “SUBSTITUTED DIARYL COMPOUND AS WELL AS PREPARATION METHOD AND APPLICATION THEREOF” (SHANDONG FIRST MEDICAL UNIV & SHANDONG ACADEMY OF MEDICAL …, priority 2021, published 2024).
“Also recorded” adds a separate entry of the source.

How the values were obtained:
Type in all cases: cell-based
[1] = tested on: human lung cancer (A549) cells; assay: MTT tumor cell growth inhibition, human lung cancer (A549); conditions: Homo sapiens; A549, 48 h culture, MTT method; read-out: IC50 value of target compound against cancer cell proliferation, A549
Procedure: (§1) Dissolve CHJ compound series with dimethyl sultbxide (DMSO, final concentration 0.4%), and use RPMI-1640 culture medium containing 15% fetal calf serum to prepare 1 mg/mL solution for future use. During drug administration in groups, use the culture medium to dilute it to the concentration needed.
(§2) Cell lines: human lung cancer (A549), Inman ovarian cancer (SKOV3), human melanoma (A375) and human colon cancer (LOVO) cell lines, all purchased from the Cell Bank of the Chinese Academy of Sciences, DMEM containing 15% fetal bovine serum (High Glucose) culture medium, placed in a 37° C., 5% CO2 incubator.
(§3) MTT is an oxidizing yellow dye with the chemical name of 3-(4,5-dimethyl-2-thiazolyl)-2,5-diphenyl-2-H-tetrazoliumbromide tetrazole bromide. The MMT method, also known as the MTT colorimetric method, can test the survival and growth of cells. The method is simple and easily accessible and often used to screet the substance with cytotoxic activity. The basic principle of testing, is that succinodehydrogenase can reduce exogenous MIT so that MTT is reduced to blueviolet crystal Formazan insoluble to water. The crystal deposits in cells. The succinodehydrogenase exists in the mitochondria of living cells, not in the dead cells. Therefore, the chromogenic reaction can only take place in living cells. Then, dissolve the blueviolet crystal Formazan contained in cells with dimethyl sulfoxide (DMSO), and measure its absorbancy with microplate reader so that the count of living cells is reflected indirectly. Within the scope of certain cell count, the amount of blueviolet crystal Formazan formed is positively correlated to the count of living cells.
(§4) Human lung cancer (A549), human ovarian cancer (SKOV3), human melanoma (A375) and human colon cancer (LOVO) ceilsare all adherent. Based on the growth rate of tumor cells, wash the adherent tumor cells in the logarithmic phase and digest them in 0.25% EDTA pancreatic enzyme. Adjust the cell count to 1×10^5/mL and inoculate the cells in 96-pore plate, each pore containing 100 μL. Culture the cells in the 37° C. CO2 incubator, and administer the drug 24 h later. Add pharmaceutical (CJH compound series) of different concentrations to the administration group. Set up 5 dosage groups for each pharmaceutical, respectively 100, 10, 1, 0.1, 0.01 μmol/L. Set up three complex pores for each concentration. Set up blank control, DMSO (0.8%) solvent control and cis-platinum positive control. After 48 h of culture in the 37 ° C. incubator containing 5% CO2, measure the OD value through MTT method and calculate the cell inhibition ratio.
(§5) After 48 h of culture of human lung cancer (A549), human ovarian cancer (SKOV3). human melanoma (A375) and human colon cancer (LOVO) cells, stop it and add 10 μL 0.5% MTT solution to each pore. Place it in the CO2 incubator for 4 h. Remove the liquid from each pore, respectively add 0.2 mL DMSO solution, and oscillate it adequately on the table concentrator under low frequency so that the blueviolet crystal Formazan is dissolved adequately. Place it in the microplate reader and record the OD value at the wavelength of […]. Calculate the average OD value of three parallel pores of different concentrations, and calculate the cell inhibition ratio and IC50 of each tested pharmaceutical under different concentrations based on the average.
(§6) Inhibition ratio (%)=[1-tested sample OD/negative control group OD]×100%.

[2] = tested on: human lung cancer (A549), human ovarian cancer (SKOV3), human melanoma (A375) and human colon cancer (LOVO) cells; assay: MTT tumor cell growth inhibition, overall comment on the four cell lines; conditions: summary of the IC50 data over A549, SKOV3, A375, LOVO
Procedure: as §1, §2, §3
as §4, with “After 48 h of culture in the 37 ° C. incubator containing 5% CO2, measure the OD value through MTT method and calculate the cell inhibition ratio.” left out
After 48 h of culture of human lung cancer (A549), human ovarian cancer (SKOV3). human melanoma (A375) and human colon cancer (LOVO) cells, stop it and add 10 μL 0.5% MTT solution to each pore. […] Place it in the microplate reader and record the OD value at the wavelength of […]. […]

[3] = tested on: human colon cancer (LOVO) cells; assay: MTT tumor cell growth inhibition, human colon cancer (LOVO); conditions: Homo sapiens, 48 h culture, MTT method, read-out: IC50 value of target compound against cancer cell proliferation, LOVO
Procedure: as §1, §2, §3, §4, §5, §6

[4] = tested on: human ovarian cancer (SKOV3) cells; assay: MTT tumor cell growth inhibition, human ovarian cancer (SKOV3); conditions: Homo sapiens, SK-OV-3; SKOV3, 48 h culture, MTT method; read-out: IC50 value of target compound against cancer cell proliferation, SKOV3
Procedure: as §1, §2, §3, §4, §5, §6

[5] = tested on: human melanoma (A375) cells; assay: MTT tumor cell growth inhibition, human melanoma (A375); conditions: Homo sapiens, A-375; A375, 48 h culture, MTT method; read-out: IC50 value of target compound against cancer cell proliferation, A375
Procedure: as §1, §2, §3, §4, §5, §6

IC50 [1]	IC50 [3]	IC50 [4]	IC50 [5]	Compound	anti-cancer activity, in words [2]
10.56 ± 0.02 µM	15.2 ± 1.78 µM	21.2 ± 1.08 µM	1.82 ± 1.23 µM	CCCc1ccc(OCC(O)CN(C)Cc2ccc(OCCN3CCC(C)CC3)c(OC)c2)c(OC)c1 (stereo not shown) [CHJ03011, 1-((3-methoxy-4-(2-(4-methylpiperidin-1-yl)ethoxy)benzyl)(methyl)amino)-3-(2-methoxy-4-propylphenoxy)propan-2-ol]	still effective against cancer
1.88 ± 0.19 µM	0.69 ± 0.03 µM	1.03 ± 0.24 µM	0.05 ± 0.01 µM	COc1cc(CN(C)CC(O)COc2c(Br)cc(Br)cc2Br)ccc1OCCN1CCC(C)CC1 (stereo not shown) [CHJ04022, 1-((3-methoxy-4-(2-(4-methylpiperidin-1-yl)ethoxy)benzyl)(methy)amino)-3-(2,4,6-tribromnophenoxy)propan-2-ol]	the most active, as active as the cis-platinum in the control group
333.1 ± 2.7 µM	97.1 ± 4.21 µM	143 ± 3.1 µM	–	COc1cc(CN(C)CC(O)COc2ccc(NC(C)=O)cc2)ccc1OCCN1CCC(C)CC1 (stereo not shown) [CHJ04061, N-(4-2-hydroxy 3-((3-methoxy-4-(2-(4-methylpiperidin-1-yl)ethoxy)benzyl)(methyl)amino)propoxy)phenypacetamide]	lowered prominently
5.46 ± 1.76 µM	0.52 ± 0.4 µM	4.21 ± 1.23 µM	1.54 ± 1.34 µM	COc1cc(CN(C)CC(O)COc2c(Br)cc(Br)cc2Br)ccc1OCCN1CCCC1 (stereo not shown) [CHJ04068, 1-((3-methoxy-4-(2-(pyrrolidin-1-yl)ethoxy)henzyl)(methyl)amino)-3-(2,4,6-tribromophenoxy)propan-2-ol]	lowered prominently; also recorded: the most active, as active as the cis-platinum in the control group
